B1: wnt3a: factor from R&D Systems (protein, UniProt P56704 19-352, looked up)
Protein Wnt-3a: SYPIWWSLAVGPQYSSLGSQPILCASIPGLVPKQLRFCRNYVEIMPSVAEGIKIGIQECQHQFRGRRWNCTTVHDSLAIFGPVLDKATRESAFVHAIASAGVAFAVTRSCAEGTAAICGCSSRHQGSPGKGWKWGGCSEDIEFGGMVSREFADARENRPDARSAMNRHNNEAGRQAIASHMHLKCKCHGLSGSCEVKTCWWSQPDFRAIGDFLKDKYDSASEMVVEKHRESRGWVETLRPRYTYFKVPTERDLVYYEASPNFCEPNPETGSFGTRDRTCNVSSHGIDGCDLLCCGRGHNARAERRREKCRCVFHWCCYVSCQECTRVYDVHTCK
B2: Dkk1: factor from R&D Systems (protein, UniProt O94907 32-266, looked up)
Dickkopf-related protein 1: TLNSVLNSNAIKNLPPPLGGAAGHPGSAVSAAPGILYPGGNKYQTIDNYQPYPCAEDEECGTDEYCASPTRGGDAGVQICLACRKRRKRCMRHAMCCPGNYCKNGICVSSDQNHFRGEIEETITESFGNDHSTLDGYSRRTTLSSKMYHTKGQEGSVCLRSSDCASGLCCARHFWSKICKPVLKEGQVCTKHRRKGSHGLEIFQRCYCGEGLSCRIQKDHHQASNSSRLHTCQRH

Legend:
[1] = system: Flk1+ mesoderm cells from EMG7 mouse ES cells; assay: Cardiomyocyte induction from ES cell-derived Flk1+ mesoderm cells on OP9 (experiment 1); format: cell-based; conditions: added to Flk1+ cells
Protocol: Undifferentiated ES cells were cultured on OP9 cells or type IV collagen (Col. IV)-coated dishes (ES-d0) for 96-108 h in differentiation medium (see Methods) to induce differentiation to Flk1^+ cells. Flk1^+/E-cadherin^− mesoderm cells obtained by FACS were plated onto OP9 stroma cells to induce further differentiation to cardiomyocytes (designated as Flk-d0). FCV cells appeared at Flk-d2 as Flk1^+/CXCR4^+/vascular endothelial cadherin^− population. Beating colonies started to be observed by Flk-d4. Appearance of alpha-MHC promoter-driven GFP^+ cardiomyocytes were evaluated and collected at Flk-d6. Experiment 1: differentiation from mesoderm to cardiomyocytes. […] Experiment 2: differentiation from undifferentiated ES cells to mesoderm. […] Experiment 3: differentiation from mesoderm to cardiac progenitors. […] Experiment 4: differentiation from cardiac progenitors to cardiomyocytes.
After 96-108 h of ES cell differentiation, cultured cells were harvested and stained with allophycocyanin (APC)-conjugated AVAS12 and FITC-conjugated ECCD2. […] PKH-negative populations were analyzed and sorted as ES cell-derived cells. […] For FACS for cardiomyocytes, cells were harvested after 6 days culture of Flk1^+ cells on OP9 cells (Flk-d6), GFP^+ population was evaluated and sorted as differentiated cardiomyocytes.

Flk1+ cells = assay: Mesoderm-specific treatment Flk-d0-2, cardiomyocytes at Flk-d6 (experiment 5); format: cell-based, mouse; conditions: added only Flk-d0-2
From the text: Beating colonies started to be observed by Flk-d4. […] Experiment 1: differentiation from mesoderm to cardiomyocytes. […] Experiment 2: differentiation from undifferentiated ES cells to mesoderm. […] Experiment 3: differentiation from mesoderm to cardiac progenitors. […] Experiment 4: differentiation from cardiac progenitors to cardiomyocytes.
Medium was replaced every 2 days.

Molecule	effect on cardiomyocyte induction (cTnT staining) [1]	cardiomyocytes at Flk-d6 after mesoderm-specific addition (Flk1+ cells)	effect on cardiomyocytes relative to that of CSA (Flk1+ cells)
11R-VIVIT	no significant effect	–	–
C=CC[C@@H]1/C=C(\C)C[C@H](C)C[C@H](OC)[C@H]2O[C@@](O)(C(=O)C(=O)N3CCCC[C@H]3C(=O)O[C@H](/C(C)=C/[C@@H]3CC[C@@H](O)[C@H](OC)C3)[C@H](C)[C@@H](O)CC1=O)[C@H](C)C[C@@H]2OC [FK506]	no significant effect	–	–
TGF-β	–	significant decrease	–
B1	–	significant decrease	–
B2	–	significantly increased	much weaker
